Patent US6528484B1, “Insecticidal protein toxins from Photorhabdus” (priority 1993, dated 2003)
Where two headings read alike, the source gives them in different places. Where a SMILES comes first, the peptide text is derived from it. [ ]: non-standard residue; d: D form. The star is where a group is joined. Sta = CC(C)C[C@H](N)[C@@H](O)CC(=O)O; Isovaleryl = CC(C)CC(=O)*

Columns and labels:
[1] = test system: protease(s) found in the Photorhabdus broth; type: biochemical, Photorhabdus luminescens; conditions: for Corrected Flu. Units (Fluorescence Units - background) / Percent Inhibition relative to protease activity at pH 8.0: pH 8
Experimental: Protease Inhibition and Classification Assays: Protease assays were performed using FITC-casein dissolved in water as substrate (0.08% final assay concentration). Proteolysis reactions were performed at 25° C. for 1 h in the appropriate buffer with 25 μl of Photorhabdus broth (150 μl total reaction volume). Samples were also assayed in the presence and absence of dithiothreitol. After incubation, an equal volume of 12% trichloroacetic acid was added to precipitate undigested protein. Following precipitation for 0.5 h and subsequent centrifugation, 100 μl of the supernatant was placed into a 96-well microtiter plate and the pH of the solution was adjusted by addition of an equal volume of 4N NaOH. Proteolysis was then quantitated using a Fluoroskan II fluorometric plate reader at excitation and emission wavelengths of 485 and 538 nm, respectively. Protease activity was tested over a range from pH 5.0-10.0 in 0.5 units increments. The following buffers were used at 50 mM final concentration: sodium acetate (pH 5.0-6.5); Tris-HCL (pH 7.0-8.0); and bis-Tris propane (pH 8.5-10.0). […] The protease inhibitors used included E-64 (L-trans-expoxysaccinylleucylamido[4-,-guanidino]-butane), 3,4 dichloroisocoumarin, Leupeptin, pepstatin, amastatin, ethylenediaminetetraacetic acid (EDTA) and 1,10 phenanthroline.

[2] = test system: neonate Diabrotica undecimpunctata howardi (Southern corn rootworm, SCR); assay: SCR bioassay on artificial diet (Example 13; used in Examples 14-16); type: in vivo
58 kDa protease = assay: Inhibition of purified 58 kDa protease; type: biochemical, Photorhabdus luminescens
Experimental: (§1) Activity assays of the different proteases in W-14 day three culture broth were performed using FITC-casein dissolved in water as substrate (0.02% final assay concentration). Proteolysis experiments were performed at 37° C. for 0-0.5 h in 0.1M Tris-HCl (pH 8.0) with different protein fractions in a total volume of 0.15 ml. Reactions were terminated by addition of an equal volume of 12% trichloroacetic acid (TCA) dissolved in water. After incubation at room temperature for 0.25 h, samples were centrifuged at […] for 0.25 h and 0.10 ml aliquots were removed and placed into 96-well microtiter plates. The solution was then neutralized by the addition of an equal volume of 2 N sodium hydroxide, followed by quantitation using a Fluoroskan II fluorometric plate reader with excitation and emission wavelengths of 485 and 538 nm, respectively. Activity measurements were performed using FITC-Casein with different protease concentrations at 37° C. for 0-10 min. A unit of activity was arbitrarily defined as the amount of enzyme needed to produce 1000 fluorescent units/min and specific activity was defined as units/mg of protease.
(§2) Inhibition studies were performed using two zinc-metalloprotease inhibitors; 1,10 phenanthroline and N-(a-rhamnopyranosyloxyhydroxyphosphinyl)-Leu-Trp(phosphoramidon) with stock solutions of the inhibitors dissolved in 100% ethanol and water, respectively. […]

41/38 kDa protease = assay: Inhibition of purified 41/38 kDa protease; type: biochemical, Photorhabdus luminescens
Experimental: as §1, §2

[3] = test system: protease activity of three day W-14 crude broth; assay: FITC-casein protease assay, three day W-14 crude broth; type: biochemical, Photorhabdus luminescens; conditions: inhibitor 0.5-1.0 mg/ml per reaction
Experimental: as §1, §2

[4] = inhibitor 0.5 μg/μl final concentration, Day 1 production broth

Molecule: CC(=O)N[C@@H](CC(C)C)C(=O)N[C@@H](CC(C)C)C(=O)N[C@H](C=O)CCCNC(=N)N [Leupeptin]
- Corrected Flu. Units (Fluorescence Units - background) [1, 4]: 13074 Fluorescence Units
- Percent Inhibition relative to protease activity at pH 8.0 [1, 4]: 0%

Molecule: toxin A: 860 kDa complex purified from activity peak A; major peptides TcdAii and TcdAiii
- activity against Southern corn root worm ([2]; in vivo): active

Molecule: O=c1oc(Cl)c(Cl)c2ccccc12 [3,4 Dichloroisocoumarin, 3,4 dichloroisocoumarin]
- Corrected Flu. Units (Fluorescence Units - background) [1, 4]: 7956 Fluorescence Units
- Percent Inhibition relative to protease activity at pH 8.0 [1, 4]: 39%

Molecule: CC(C)C[C@H](NC(=O)[C@H]1O[C@@H]1C(=O)O)C(=O)NCCCCN=C(N)N (relative stereo) [Strain E-64, L-trans-expoxysaccinylleucylamido[4-,-guanidino]-butane]
- Corrected Flu. Units (Fluorescence Units - background) [1]: 14259 Fluorescence Units
- Percent Inhibition relative to protease activity at pH 8.0 [1]: 0%

Molecule: c1cnc2c(c1)ccc1cccnc12 [1,10 Phenanthroline, 1,10 phenanthroline]
- inhibition of purified 58 kDa protease (58 kDa protease): completely inhibited
- inhibition of all protease activity of crude broth ([1]; final concentration of 50 μg): complete inhibition
- IC50 ([1]; in 100 μl of a 2 mg/ml crude broth solution): 5 µg
- Corrected Flu. Units (Fluorescence Units - background) [1, 4]: 15 Fluorescence Units
- Percent Inhibition relative to protease activity at pH 8.0 [1, 4]: 99%
- inhibition of purified 41/38 kDa protease (41/38 kDa protease): completely inhibited
- effect on protease activity of three day W-14 crude broth [3]: complete elimination of all protease activity

Molecule: O[C@H](CS)[C@H](O)CS (racemic) [DTT, dithiothreitol]
- effect on protease activity ([1]; samples assayed in presence and absence of dithiothreitol): did not have any effect

Molecule: toxin B: 860 kDa complex purified from activity peak B; major peptides TcbAii and TcbAiii (or intact TcbA)
- LD50 against SCR after SCR gut content treatment ([2]; 40 μg toxin with 50 μl SCR gut content, 37° C. overnight): about 70 ng
- fold increase of SCR activity by SCR gut content treatment ([2]; LD50 treated against untreated): 10 fold
- LD50 against SCR ([2]; in vivo): around 700 ng
- activity against Southern corn root worm ([2]; in vivo): active
- toxin activity after protease K treatment ([2]; separate experiment): completely eliminated toxin activity

Molecule: CC(C)C[C@@H](N)[C@H](O)C(=O)N[C@H](C(=O)N[C@H](C(=O)N[C@@H](CC(=O)O)C(=O)O)C(C)C)C(C)C [Amastatin, amastatin]
- Corrected Flu. Units (Fluorescence Units - background) [1, 4]: 12474 Fluorescence Units
- Percent Inhibition relative to protease activity at pH 8.0 [1, 4]: 4%

Molecule: TcbA: peptide TcbA, SEQ ID NO:12; in Table 24 bioassay lines the TcbA-enriched toxin B complex fraction of W-14 broth
- SCR Weight (mg/insect), average weight of live insect after 5 days on diet ([2]; 38 kDa protease treatment): 0.1 mg/insect
- LD50 (μg protein) ([2]; 38 kDa protease treatment, 37° C., 90 min): 0.52 μg protein
- LD50 (μg protein) ([2]; Control (protease omitted)): 2.1 μg protein
- SCR Weight (mg/insect), average weight of live insect after 5 days on diet ([2]; Control (protease omitted)): 0.2 mg/insect
- fold increase of SCR insecticidal activity by 38 kDa protease treatment ([2]; comparison of activity in several dilutions): 3 to 4 fold

Molecule: CC(C)C[C@H](NP(=O)(O)O[C@@H]1O[C@@H](C)[C@H](O)[C@@H](O)[C@H]1O)C(=O)N[C@@H](Cc1c[nH]c2ccccc12)C(=O)O [phosphoramidon, N-(a-rhamnopyranosyloxyhydroxyphosphinyl)-Leu-Trp]
- inhibition of purified 58 kDa protease (58 kDa protease): insensitive
- inhibition of purified 41/38 kDa protease (41/38 kDa protease): inhibited
- reduction of protease activity of three day W-14 crude broth ([3]; not further reduced with additional inhibitor): about 56%

Molecule: CC(C)CC(=O)N[C@H](C(=O)N[C@H](C(=O)N[C@@H](CC(C)C)[C@@H](O)CC(=O)N[C@@H](C)C(=O)N[C@@H](CC(C)C)[C@@H](O)CC(=O)O)C(C)C)C(C)C [Pepstatin, pepstatin] (Isovaleryl-VV[Sta]A[Sta]-OH)
- Corrected Flu. Units (Fluorescence Units - background) [1, 4]: 13441 Fluorescence Units
- Percent Inhibition relative to protease activity at pH 8.0 [1, 4]: 0%
